Patent publication US20060234914A1, “Fragments of proinsulin c-peptide” (Creative Peptides Sweden AB, priority 2002, published 2006)
Where two headings read alike, the source gives them in different places.

Legend:
[1] = test system: human renal tubular cells; experiment: Intracellular Ca2+ concentration ([Ca2+]i) measurements as an assay of C-peptide activity; type: cell-based; conditions: for [Ca2+]i response after preincubation of the cells with pertussis toxin: pertussis toxin 1 μg/ml for 4 h at 37° C.
From the text: Based on studies showing a C-peptide effect on the intracellular Ca^2+ concentration ([Ca^2+]) (Ohtomo et al., supra, Kunt et al., supra), an assay has been developed, for C-peptide activity, based on measuring [Ca^2+]i changes in human renal tubular cells, namely a rise in [Ca^2+]i.
The following peptides were used, all prepared by solid-phase peptide synthesis and purchased from Sigma (Genosys (Cambridge, UK): human C-peptide, scrambled C-peptide (with the same residues, but randomly ordered des (27-31) C-peptide and C-terminal pentapeptide (EGSLQ).
Human renal tubular cells were obtained from the outer cortex of renal tissues obtained from non-diabetic patients undergoing elective nephrectomy for renal cell carcinomas. The collection of the tissue samples during suegery was approved by the Ethics Committee of the Karolinska Hospital. The cells were cultured in RPMI 1640 (Life Technologies, Grand Island, N.Y.) supplemented with 10% fetal calf serum, 2 mM L-glutamine, 10 mM HEPES, benzylpenicillin (100 U/ml), and streptbmycin (100 U/ml). Cells were grown to confluency on cover slips in a six-well plate and starved in serum-free medium for 4 hours before experiments.
Changes in [Ca^2+1]1 were measured on cells attached to cover slips. The cells were loaded with 2 μM of the fluorescent Ca^2+ indicator fura-2/AM at 37° C. for 30 minutes in a buffer containing 115 mM NaCl, 24 mM NaHCO3, 4.7 mM KCl, 1.26 mM CaCl2 1.2 mM KH2PO4, 1.2 mM MgSOZ 11.1 mM glucose, 20 mM HEPES, and 5 mg/ml bovine serum albumin, pH 7.4. Cover slips were mounted as the bottom of an open chamber placed on a thermostatically controlled stage of an inverted epifluorescence microscope (Zeiss, Axiovert 135). The microscope was connected to a SPEX fluorolog-2 system for dual-wave-length excitation fluorimetry. The emissions of the two excitation wavelengths of 340 and 380 nm were used to calculate the fluorescence ratio (F340/F380) reflecting changes in [Ca^2+]i, [17]. Treatments during recordings were made using a perifusion system attached to the chamber. Changes in [Ca^2+]i were measured using an attached CCD camera that allowed recording of individual cells in the cell clusters. The influence of pertussis toxin was studied by preincubation of the cells with the toxin at 1 μg/ml for 4 h at 37° C.
In these peptides each or all of Glu 3, Glu 11 and Glu 27 of human C-peptide were replaced by Ala. In addition, all of Glu 3, Glu 11 and Glu 27 were replaced by Gln. The peptides were tested for C-peptide activity by monitoring for rises in [Ca^2+]i as described in Example 1.

[2] = test system: p44/42 MAP kinase (Erk1 and Erk2); experiment: Western blot of p44/42 MAP kinase phosphorylation in Swiss 3T3 cells; type: cell-based, rat; conditions: Example 6, 1 nM peptide, 3 minutes at 37° C., FIG. 3
Method: Swiss 3T3 cells, a […] fibroblast cell line, passage 6, were seeded 96 h before use in three 6-well plates. After 96 h, the cells in each well were confluent. The cultivation medium was Dulbecco's Modified Eagle Medium (DMEM) without sodium pyruvate, with pyridoxineHCl, 4500 mg/l glucose, 50 μg/ml gentamicin, and 10% foetal calf serum (FCS).
The cells were washed thoroughly with 37° C. starvation medium (cultivation medium as above without addition of FCS) and then kept in 1 ml 37° C. starvation medium for 2.5 h. 15 min. prior to the experiment, the buffer was changed to 37° C. Hanks' buffer (Gibco), and then kept in 37° C. […]
Protein content was determined in the collected supernatants using a BCA Protein Assay Reagent Kit (Pierce), including albumin standards. […]
The PVDF membranes were incubated with primary antibodies against (I) Phosphop44/42 MAP Kinase (Thr202/Tyr204) and (II) p44/42 MAP Kinase, respectively. […] The membranes were rinsed with TBS/T, and HRP activity on the membranes was detected with the SuperSignal® West Pico Chemiluminescent Substrate kit (Pierce).
Photographic films were exposed to the membranes, and bands of appropriate sizes on the resulting films were quantitated by densitometry, using a GS-710 Imaging Densitometer (Bio-Rad) and Quantity One software (Bio-Rad). […]

| Substance | changes in [Ca2+]i (F340/F380 ratio) [1] | [Ca2+]i response after preincubation of the cells with pertussis toxin [1] | capacity of phosphorylating p44/42 MAP kinase [2] | changes in [Ca2+]i (F340/F380 ratio) ([1]; human renal tubular cells loaded with fura-2/AM, peptide 5 and 10 nM) |
| --- | --- | --- | --- | --- |
| EGSLQ [C-terminal pentapeptide] | Results similar to those with human C-peptide | eliminated |  |  |
| EAEALQAAQAELGGGPGAGSLQPLALEGSLQ (EAEALQAAQAELGGGPGAGSLQPLALEGSLQ) [Alanine-rich C-peptide] |  |  | did not decrease the biological activity |  |
| EAEDLQVGQVELGGGPGAGSLQPLALEGSLQ [human C-peptide] |  | eliminated |  | effect of 5 nM human C-peptide may be seen |
| EAEPLQPPQPELGGGPGAGSLQPLALEGSLQ [Proline-rich C-peptide] |  |  | decrease in phosphorylating capacity |  |
